# Data published in ChEMBL document CHEMBL2424626, “Synthesis and antiproliferative activities of quebecol and its analogs” (Bioorg Med Chem Lett, 2013).
# Key:
# SK-OV-3 = experiment: Antiproliferative activity against human SKOV3 cells assessed as cell viability at 75 uM after 72 hrs relative to control; assay type: functional; settings: SK-OV-3, 72 h
# HeLa = experiment: Antiproliferative activity against human HeLa cells assessed as cell viability at 75 uM after 72 hrs relative to control; assay type: functional
# MCF7 [1] = experiment: Antiproliferative activity against human MCF7 cells assessed as cell viability at 75 uM after 72 hrs relative to control; assay type: functional; settings: MCF7, 72 h
# HT-29 = experiment: Antiproliferative activity against human HT-29 cells assessed as cell viability at 75 uM after 72 hrs relative to control; assay type: functional; settings: HT-29, 72 h
# MCF7 [2] = experiment: Antiproliferative activity against human MCF7 cells after 72 hrs; assay type: functional, cell-based
SMILES,"IC50 (MCF7 [2]; Homo sapiens, MCF7, 72 h)",IC50 (MCF7 [2]; mcf7),inhibition at 75 µM (SK-OV-3),inhibition at 75 µM (HeLa),inhibition at 75 µM (MCF7 [1]),inhibition at 75 µM (HT-29)
OCC(c1ccccc1)C(c1ccc(O)cc1)c1ccc(O)cc1 (stereo not drawn),–,–,80%,80%,80%,80%
CCOC(=O)C(c1ccc(O)c(OC)c1)C(c1ccc(O)cc1)c1ccc(O)cc1 (stereo not drawn),–,–,–,–,75%,–
CCOC(=O)C(c1ccccc1)C(c1ccc(O)cc1)c1ccc(O)cc1 (stereo not drawn),80.6 µM,–,80%,80%,80%,80%
CCOC(=O)C(c1ccc(OC)cc1)C(c1ccc(O)cc1)c1ccc(O)cc1 (stereo not drawn),–,–,–,–,75%,–

# The next lines start with results.
"IC50 (MCF7 [2]; Homo sapiens, MCF7, 72 h)",IC50 (MCF7 [2]; mcf7),SMILES,inhibition at 75 µM (SK-OV-3),inhibition at 75 µM (HeLa),inhibition at 75 µM (MCF7 [1]),inhibition at 75 µM (HT-29)
104 µM,–,COc1cc(C(CO)C(c2ccc(O)c(OC)c2)c2ccc(O)c(OC)c2)ccc1O (stereo in doubt),–,–,–,–
85.1 µM,–,CCOC(=O)C(c1cccc(OC)c1)C(c1ccc(O)cc1)c1ccc(O)cc1 (stereo not drawn),80%,80%,80%,80%
–,103 µM,COc1cc(C(CO)C(c2ccc(O)c(OC)c2)c2ccc(O)c(OC)c2)ccc1O (stereo in doubt; 9a),–,–,–,–
78.7 µM,–,CCOC(=O)C(c1ccc(C)cc1)C(c1ccc(O)cc1)c1ccc(O)cc1 (stereo not drawn),80%,80%,80%,80%
